Laboratory results: ChEMBL document CHEMBL5500396, “Discovery, Multiparametric Optimization, and Solid-State Driven Identification of CHF-6550, a Novel Soft Dual Pharmacology Muscarinic Antagonist and β2 Agonist (MABA) for the Inhaled Treatment of Respiratory Diseases” (J Med Chem, 2024)

Assays:
Cavia porcellus [1] = assay: Inhibition of histamine induced bronchoconstriction in male albino Dunkin-Hartley guinea pig model at 1 nmol/kg, IT(Intratracheal) preadministered with compound followed by histamine addition at 5 to 30 mins and measured 1 hrs post compound treatment relative to control; conditions: read-out: INH
Cavia porcellus [2] = assay: Inhibition of acetylcholine induced bronchoconstriction in male albino Dunkin-Hartley guinea pig model at 1 nmol/kg, IT(Intratracheal) preadministered with compound followed by acetylcholine addition at 5 to 30 mins and measured 1 hrs post compound treatment relative to control; conditions: read-out: INH
Cavia porcellus [3] = assay: Inhibition of histamine induced bronchoconstriction in male albino Dunkin-Hartley guinea pig model at 1 nmol/kg, IT(Intratracheal) preadministered with compound followed by histamine addition at 5 to 30 mins and measured 24 hrs post compound treatment relative to control; conditions: read-out: INH
Cavia porcellus [4] = assay: Inhibition of acetylcholine induced bronchoconstriction in male albino Dunkin-Hartley guinea pig model at 1 nmol/kg, IT(Intratracheal) preadministered with compound followed by acetylcholine addition at 5 to 30 mins and measured 24 hrs post compound treatment relative to control; conditions: read-out: INH
[5] = Stability in guinea pig lung S9 fraction at 1 uM incubated for 60 mins by LC-MS/MS analysis
Cavia porcellus [6] = organism: Cavia porcellus; assay: animal or person; conditions: albino Dunkin-Hartley, 1 h, read-out: INH
Description: Inhibition of acetylcholine induced bronchoconstriction in male albino Dunkin-Hartley guinea pig model at 1 nmol/kg, IT(Intratracheal) preadministered with compound followed by acetylcholine addition at 5 to 30 mins in presence of ICI-118551 and measured 1 hrs post compound treatment relative to control

Cavia porcellus [7] = organism: Cavia porcellus; assay: animal or person; conditions: albino Dunkin-Hartley, 24 h, read-out: INH
Description: Inhibition of acetylcholine induced bronchoconstriction in male albino Dunkin-Hartley guinea pig model at 1 nmol/kg, IT(Intratracheal) preadministered with compound followed by acetylcholine addition at 5 to 30 mins in presence of ICI-118551 and measured 24 hrs post compound treatment relative to control

[8] = molecular target: Muscarinic acetylcholine receptor M3 (Cavia porcellus, UniProt Q8VH26); assay: Antagonist activity at M3 receptor in male albino Dunkin-Hartley guinea pig trachea assessed as inhibition of carbachol-induced smooth muscle contraction in presence of propranolol
Muscarinic acetylcholine receptor M3 (Cavia porcellus, UniProt Q8VH26), sequence (Q8VH26 whole entry): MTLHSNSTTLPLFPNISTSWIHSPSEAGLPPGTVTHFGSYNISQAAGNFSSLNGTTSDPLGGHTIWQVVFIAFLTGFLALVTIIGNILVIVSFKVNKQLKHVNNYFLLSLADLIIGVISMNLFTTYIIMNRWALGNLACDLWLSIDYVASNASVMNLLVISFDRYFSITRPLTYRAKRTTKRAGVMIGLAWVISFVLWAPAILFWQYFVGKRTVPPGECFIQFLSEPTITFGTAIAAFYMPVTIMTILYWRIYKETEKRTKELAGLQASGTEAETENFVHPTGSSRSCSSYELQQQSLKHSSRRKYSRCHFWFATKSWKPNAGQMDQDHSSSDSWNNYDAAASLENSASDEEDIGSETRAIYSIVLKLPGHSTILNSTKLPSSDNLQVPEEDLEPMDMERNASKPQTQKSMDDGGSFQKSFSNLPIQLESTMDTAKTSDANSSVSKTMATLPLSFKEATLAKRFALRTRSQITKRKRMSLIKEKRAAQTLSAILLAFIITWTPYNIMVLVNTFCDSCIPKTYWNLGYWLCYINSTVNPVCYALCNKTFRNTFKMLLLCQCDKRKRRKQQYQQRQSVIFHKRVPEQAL

[9] = molecular target: Beta-2 adrenergic receptor (Cavia porcellus, UniProt Q8K4Z4); assay: Agonist activity at beta2 adrenoceptor in male albino Dunkin-Hartley guinea pig trachea assessed as inhibition of histamine induced smooth muscle contraction
Beta-2 adrenergic receptor (Cavia porcellus, UniProt Q8K4Z4), sequence (Q8K4Z4 whole entry): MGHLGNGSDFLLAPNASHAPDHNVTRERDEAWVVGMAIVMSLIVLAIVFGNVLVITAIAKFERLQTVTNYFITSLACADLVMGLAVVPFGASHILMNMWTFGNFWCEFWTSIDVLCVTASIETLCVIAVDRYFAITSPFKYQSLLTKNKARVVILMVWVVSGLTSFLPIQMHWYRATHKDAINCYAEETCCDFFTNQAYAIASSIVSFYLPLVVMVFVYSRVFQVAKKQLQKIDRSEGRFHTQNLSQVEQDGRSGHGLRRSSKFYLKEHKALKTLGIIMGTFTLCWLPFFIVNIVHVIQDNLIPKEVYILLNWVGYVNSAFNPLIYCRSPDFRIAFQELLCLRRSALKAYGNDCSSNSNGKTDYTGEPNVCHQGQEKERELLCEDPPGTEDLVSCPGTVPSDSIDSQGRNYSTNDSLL

Trachea = assay: Inhibition of carbachol-induced smooth muscle contraction in male albino Dunkin-Hartley guinea pig trachea; conditions: Cavia porcellus, read-out: pIC50 (converted)
[10] = molecular target: Muscarinic acetylcholine receptor M3 (Homo sapiens, UniProt P20309)
Muscarinic acetylcholine receptor M3 (Homo sapiens, UniProt P20309), sequence (P20309 whole entry): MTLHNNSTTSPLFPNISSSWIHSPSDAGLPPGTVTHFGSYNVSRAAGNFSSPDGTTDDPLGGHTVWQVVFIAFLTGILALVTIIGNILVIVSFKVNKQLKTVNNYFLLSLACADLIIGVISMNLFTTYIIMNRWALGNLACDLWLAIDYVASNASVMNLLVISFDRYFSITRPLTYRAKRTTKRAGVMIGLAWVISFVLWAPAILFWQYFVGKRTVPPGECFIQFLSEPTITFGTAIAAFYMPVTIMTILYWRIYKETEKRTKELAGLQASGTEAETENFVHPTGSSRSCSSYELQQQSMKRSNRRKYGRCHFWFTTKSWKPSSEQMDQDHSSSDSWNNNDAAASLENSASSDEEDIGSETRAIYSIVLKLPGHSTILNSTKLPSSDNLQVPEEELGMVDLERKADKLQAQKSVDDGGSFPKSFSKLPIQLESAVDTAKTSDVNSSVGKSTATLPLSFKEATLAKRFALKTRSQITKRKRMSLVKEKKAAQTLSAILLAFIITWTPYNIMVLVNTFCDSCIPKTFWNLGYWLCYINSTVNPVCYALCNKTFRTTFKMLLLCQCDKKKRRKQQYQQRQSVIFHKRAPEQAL
Description: Displacement of Scopolamine methyl chloride,[N-methyl-3H] from human muscarinic M3 receptor assessed as inhibition constant incubated for 2 hrs by Microbeta scintillation counter

[11] = molecular target: Beta-2 adrenergic receptor (Homo sapiens, UniProt P07550)
Beta-2 adrenergic receptor (Homo sapiens, UniProt P07550), sequence (P07550 whole entry): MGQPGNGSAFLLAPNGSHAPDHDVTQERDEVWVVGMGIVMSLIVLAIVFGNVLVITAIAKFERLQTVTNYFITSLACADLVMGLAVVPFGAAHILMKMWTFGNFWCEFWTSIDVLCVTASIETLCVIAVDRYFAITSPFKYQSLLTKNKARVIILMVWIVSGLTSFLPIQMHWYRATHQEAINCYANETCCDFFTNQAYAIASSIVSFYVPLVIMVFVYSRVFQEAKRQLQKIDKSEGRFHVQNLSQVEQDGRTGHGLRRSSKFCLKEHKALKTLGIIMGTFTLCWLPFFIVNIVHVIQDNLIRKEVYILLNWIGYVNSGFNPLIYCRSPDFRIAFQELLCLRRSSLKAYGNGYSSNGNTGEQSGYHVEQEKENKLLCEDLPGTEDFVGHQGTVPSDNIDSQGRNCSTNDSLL
Description: Displacement of [125I]-Cyanopindolol from human beta2 adrenoceptor assessed as inhibition constant incubated for 1 hrs by Microbeta scintillation counter

in vitro [12] = conditions: human, hepatocytes
Description: Metabolic stability in human hepatocytes assessed as clearance measured per 10^6 cells at 1 uM incubated for 90 mins by LC-MS/MS analysis

in vitro [13] = conditions: rat, hepatocytes
Description: Metabolic stability in rat hepatocytes assessed as clearance measured per 10^6 cells at 1 uM incubated for 90 mins by LC-MS/MS analysis

in vitro [14] = conditions: human, plasma
Description: Stability in human plasma assessed as half-life at 5 uM incubated for 120 mins by LC-MS/MS analysis

in vitro [15] = conditions: rat, plasma
Description: Stability in rat plasma assessed as half-life at 5 uM incubated for 120 mins by LC-MS/MS analysis

in vitro [16] = conditions: guinea pig, plasma
Description: Stability in guinea pig plasma assessed as half-life at 5 uM incubated for 120 mins by LC-MS/MS analysis

Cavia porcellus [17] = assay: Inhibition of histamine induced bronchoconstriction in male albino Dunkin-Hartley guinea pig model at 0.3 nmol/kg, IT(Intratracheal) preadministered with compound followed by histamine addition at 5 to 30 mins and measured 1 hrs post compound treatment relative to control; conditions: read-out: INH
Cavia porcellus [18] = assay: Inhibition of acetylcholine induced bronchoconstriction in male albino Dunkin-Hartley guinea pig model at 0.3 nmol/kg, IT(Intratracheal) preadministered with compound followed by acetylcholine addition at 5 to 30 mins and measured 1 hrs post compound treatment relative to control; conditions: read-out: INH
Cavia porcellus [19] = assay: Inhibition of histamine induced bronchoconstriction in male albino Dunkin-Hartley guinea pig model at 0.3 nmol/kg, IT(Intratracheal) preadministered with compound followed by histamine addition at 5 to 30 mins and measured 16 hrs post compound treatment relative to control; conditions: read-out: INH
Cavia porcellus [20] = assay: Inhibition of acetylcholine induced bronchoconstriction in male albino Dunkin-Hartley guinea pig model at 0.3 nmol/kg, IT(Intratracheal) preadministered with compound followed by acetylcholine addition at 5 to 30 mins and measured 16 hrs post compound treatment relative to control; conditions: read-out: INH
in vitro [21] = conditions: guinea pig, lung S9 fraction
Description: Stability in guinea pig lung S9 fraction assessed as half-life at 1 uM incubated for 60 mins by LC-MS/MS analysis

in vitro [22] = conditions: guinea pig, hepatocytes
Description: Metabolic stability in guinea pig hepatocytes assessed as clearance measured per 10^6 cells at 1 uM incubated for 90 mins by LC-MS/MS analysis

in vitro [23] = conditions: human, lung S9 fraction
Description: Stability in human lung S9 fraction assessed as half-life at 1 uM incubated for 60 mins by LC-MS/MS analysis

in vitro [24] = conditions: rat, lung S9 fraction
Description: Stability in rat lung S9 fraction assessed as half-life at 1 uM incubated for 60 mins by LC-MS/MS analysis

Cavia porcellus [25] = organism: Cavia porcellus; assay: animal or person; conditions: albino Dunkin-Hartley, 1 h, read-out: INH; remark: listed apart in the source
Description: Inhibition of acetylcholine induced bronchoconstriction in male albino Dunkin-Hartley guinea pig model at 0.3 nmol/kg, IT(Intratracheal) preadministered with compound followed by acetylcholine addition at 5 to 30 mins in presence of ICI-118551 and measured 1 hrs post compound treatment relative to control

Cavia porcellus [26] = organism: Cavia porcellus; assay: animal or person; conditions: albino Dunkin-Hartley, 16 h, read-out: INH
Description: Inhibition of acetylcholine induced bronchoconstriction in male albino Dunkin-Hartley guinea pig model at 0.3 nmol/kg, IT(Intratracheal) preadministered with compound followed by acetylcholine addition at 5 to 30 mins in presence of ICI-118551 and measured 16 hrs post compound treatment relative to control

[27] = molecular target: Voltage-gated inwardly rectifying potassium channel KCNH2 (Homo sapiens, UniProt Q12809)
Voltage-gated inwardly rectifying potassium channel KCNH2, sequence (Q12809 whole entry): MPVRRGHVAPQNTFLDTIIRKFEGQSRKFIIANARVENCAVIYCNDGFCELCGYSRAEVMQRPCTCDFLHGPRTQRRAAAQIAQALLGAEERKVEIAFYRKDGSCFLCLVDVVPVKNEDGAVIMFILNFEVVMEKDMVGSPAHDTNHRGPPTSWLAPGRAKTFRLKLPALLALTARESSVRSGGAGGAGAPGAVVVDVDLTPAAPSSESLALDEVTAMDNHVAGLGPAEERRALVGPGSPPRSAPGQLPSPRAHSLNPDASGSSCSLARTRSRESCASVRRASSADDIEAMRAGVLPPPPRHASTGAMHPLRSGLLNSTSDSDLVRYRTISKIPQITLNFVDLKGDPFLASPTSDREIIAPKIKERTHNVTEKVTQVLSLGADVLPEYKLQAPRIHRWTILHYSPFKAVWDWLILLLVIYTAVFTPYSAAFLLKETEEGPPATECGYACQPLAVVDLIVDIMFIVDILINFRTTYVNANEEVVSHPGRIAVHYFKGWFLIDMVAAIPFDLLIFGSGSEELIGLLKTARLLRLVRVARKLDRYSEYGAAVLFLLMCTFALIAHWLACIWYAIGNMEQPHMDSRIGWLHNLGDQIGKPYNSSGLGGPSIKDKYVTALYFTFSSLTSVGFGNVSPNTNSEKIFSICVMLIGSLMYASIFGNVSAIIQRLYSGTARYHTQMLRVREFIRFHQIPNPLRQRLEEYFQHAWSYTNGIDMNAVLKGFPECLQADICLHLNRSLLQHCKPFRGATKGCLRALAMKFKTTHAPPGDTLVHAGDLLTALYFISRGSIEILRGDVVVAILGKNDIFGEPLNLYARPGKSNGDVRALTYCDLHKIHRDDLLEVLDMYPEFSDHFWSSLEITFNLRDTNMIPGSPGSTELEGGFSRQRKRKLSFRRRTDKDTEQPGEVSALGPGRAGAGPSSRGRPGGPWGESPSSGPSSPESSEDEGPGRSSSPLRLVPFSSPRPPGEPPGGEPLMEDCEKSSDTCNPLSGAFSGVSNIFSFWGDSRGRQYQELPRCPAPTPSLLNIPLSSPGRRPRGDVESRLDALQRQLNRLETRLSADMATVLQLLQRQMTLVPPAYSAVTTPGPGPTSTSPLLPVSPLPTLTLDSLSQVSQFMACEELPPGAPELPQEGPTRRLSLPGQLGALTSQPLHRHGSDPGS
Description: Inhibition of human ERG by patch clamp assay

[28] = molecular target: Sodium channel protein type 5 subunit alpha (Homo sapiens, UniProt Q14524)
Description: Inhibition of human Nav1.5

[29] = molecular target: Voltage-dependent L-type calcium channel subunit alpha-1C (Homo sapiens, UniProt Q13936)
Description: Inhibition of human Cav1.2

For Cn1nc(C(=O)OCCCCNC[C@H](O)c2ccc(O)c3[nH]c(=O)ccc23)cc1COc1cccc([C@@H](NC(=O)O[C@H]2CN3CCC2CC3)c2ccccc2)c1, which inhibition in vivo at 0.001 µmol/kg (Cavia porcellus [1]) is on record?
The inhibition in vivo at 0.001 µmol/kg was 73%.

And the inhibition in vivo at 0.001 µmol/kg (Cavia porcellus [2])?
Its inhibition in vivo at 0.001 µmol/kg is 93%.

What about the inhibition in vivo at 0.001 µmol/kg (Cavia porcellus [3]) of the same compound?
Its inhibition in vivo at 0.001 µmol/kg is 51%.

What about the inhibition in vivo at 0.001 µmol/kg (Cavia porcellus [4]) of the same compound?
Its inhibition in vivo at 0.001 µmol/kg is 71%.

What about the remaining at 1 h, 1 µM [5] of the same compound?
The remaining at 1 h, 1 µM was 98.5%.

What about the inhibition in vivo at 0.001 µmol/kg (Cavia porcellus [6]) of the same compound?
Its inhibition in vivo at 0.001 µmol/kg is 84%.

What about the inhibition in vivo at 0.001 µmol/kg (Cavia porcellus [7]) of the same compound?
Its inhibition in vivo at 0.001 µmol/kg is 45%.

Which results are given for O=C(N[C@@H](c1ccccc1)c1cccc(OCc2cccc(C(=O)NCCCCNC[C@H](O)c3ccc(O)c4[nH]c(=O)ccc34)c2)c1)O[C@H]1CN2CCC1CC2?
IC50 [8]: 0.794 nM; IC50 [9]: 1 nM; IC50 (Trachea): 0.794 nM; Ki [10]: 0.0631 nM; Ki [11]: 0.0126 nM

Which Ki [10] does the source give for COc1cc(C(=O)NCCCOc2cccc([C@](O)(C(=O)OCC3CCN(CC4CC4)CC3)c3ccccc3)c2)c(F)cc1CNC[C@H](O)c1ccc(O)c2[nH]c(=O)ccc12.O=CO.O=CO here?
Its Ki is 0.01 nM.

And the Ki [11]?
The Ki was 0.316 nM.

And the hepatocyte CLint at 1.5 h, 1 µM (in vitro [12])?
Its hepatocyte CLint at 1.5 h, 1 µM is 9 µL/min/1e6 cells.

What about the hepatocyte CLint at 1.5 h, 1 µM (in vitro [13]) of the same compound?
The hepatocyte CLint at 1.5 h, 1 µM was 47 µL/min/1e6 cells.

What about the half-life at 2 h, 5 µM (in vitro [14]) of the same compound?
The half-life at 2 h, 5 µM was over 150 min.

What about the half-life at 2 h, 5 µM (in vitro [15]) of the same compound?
Its half-life at 2 h, 5 µM is 15 min.

And the half-life at 2 h, 5 µM (in vitro [16])?
The half-life at 2 h, 5 µM was over 150 min.

With CCN1CCC(COC(=O)[C@](O)(c2ccccc2)c2cccc(OCCCNC(=O)c3cc(OC)c(CNC[C@H](O)c4ccc(O)c5[nH]c(=O)ccc45)cc3F)c2)CC1.O=C(O)C(F)(F)F.O=C(O)C(F)(F)F as the compound, how does the IC50 [8] read?
Its IC50 is 3.16 nM.

And the IC50 [9]?
The IC50 was 3.16 nM.

What about the IC50 (Trachea) of the same compound?
The IC50 was 0.501 nM.

And the inhibition in vivo at 0.0003 µmol/kg (Cavia porcellus [17])?
The inhibition in vivo at 0.0003 µmol/kg was 85%.

And the inhibition in vivo at 0.0003 µmol/kg (Cavia porcellus [18])?
The inhibition in vivo at 0.0003 µmol/kg was 78%.

And the remaining at 1 h, 1 µM [5]?
Its remaining at 1 h, 1 µM is 96.5%.

What about the inhibition in vivo at 0.0003 µmol/kg (Cavia porcellus [19]) of the same compound?
Its inhibition in vivo at 0.0003 µmol/kg is 60%.

What about the inhibition in vivo at 0.0003 µmol/kg (Cavia porcellus [20]) of the same compound?
The inhibition in vivo at 0.0003 µmol/kg was 62%.

And the Ki [10]?
The Ki was 0.0126 nM.

And the Ki [11]?
Its Ki is 0.501 nM.

And the half-life at 1 h, 1 µM (in vitro [21])?
Its half-life at 1 h, 1 µM is 280 min.

And the hepatocyte CLint at 1.5 h, 1 µM (in vitro [12])?
The hepatocyte CLint at 1.5 h, 1 µM was 2 µL/min/1e6 cells.

And the hepatocyte CLint at 1.5 h, 1 µM (in vitro [13])?
The hepatocyte CLint at 1.5 h, 1 µM was 27 µL/min/1e6 cells.

What about the hepatocyte CLint at 1.5 h, 1 µM (in vitro [22]) of the same compound?
Its hepatocyte CLint at 1.5 h, 1 µM is 60 µL/min/1e6 cells.

What about the half-life at 1 h, 1 µM (in vitro [23]) of the same compound?
The half-life at 1 h, 1 µM was 280 min.

What about the half-life at 1 h, 1 µM (in vitro [24]) of the same compound?
The half-life at 1 h, 1 µM was 280 min.

And the half-life at 2 h, 5 µM (in vitro [14])?
Its half-life at 2 h, 5 µM is over 150 min.

And the half-life at 2 h, 5 µM (in vitro [15])?
Its half-life at 2 h, 5 µM is 56 min.

And the half-life at 2 h, 5 µM (in vitro [16])?
Its half-life at 2 h, 5 µM is over 150 min.

What about the inhibition in vivo at 0.0003 µmol/kg (Cavia porcellus [25]) of the same compound?
Its inhibition in vivo at 0.0003 µmol/kg is 61%.

And the inhibition in vivo at 0.0003 µmol/kg (Cavia porcellus [26])?
The inhibition in vivo at 0.0003 µmol/kg was 51%.

For O=C(NCCCOc1cccc([C@](O)(C(=O)O)c2ccccc2)c1)c1ccc(CNC[C@H](O)c2ccc(O)c3[nH]c(=O)ccc23)cc1, which Ki [10] is on record?
The Ki was over 50.1 nM.

What about the IC50 [27] of the same compound?
Its IC50 is over 150 µM.

And the IC50 [28]?
The IC50 was over 150 µM.

What about the IC50 [29] of the same compound?
Its IC50 is over 150 µM.

For O=C(N[C@@H](c1ccccc1)c1cccc(OCc2ccc(C(=O)NCCCNC[C@H](O)c3ccc(O)c4[nH]c(=O)ccc34)cc2)c1)O[C@@H]1CN2CCC1CC2, which IC50 [8] is on record?
The IC50 was 0.2 nM.

And the IC50 [9]?
The IC50 was 0.158 nM.

What about the IC50 (Trachea) of the same compound?
The IC50 was 0.158 nM.

And the Ki [10]?
Its Ki is 0.1 nM.

And the Ki [11]?
The Ki was 0.0126 nM.

For O=C(NCCCNC[C@H](O)c1ccc(O)c2[nH]c(=O)ccc12)c1ccc(COc2cccc([C@@](O)(C(=O)OCC3CCN(Cc4ccccc4)CC3)c3ccccc3)c2)cc1, which IC50 [8] is on record?
The IC50 was 5.01 nM.

What about the IC50 [9] of the same compound?
Its IC50 is 0.2 nM.

What about the IC50 (Trachea) of the same compound?
The IC50 was 0.02 nM.

And the Ki [10]?
The Ki was 3.16 nM.

And the Ki [11]?
Its Ki is 0.0316 nM.

Which results are given for COc1cc(C(=O)NCCCOc2cccc([C@](O)(C(=O)OCC3CCN(Cc4ccccc4)CC3)c3ccccc3)c2)c(F)cc1CNC[C@H](O)c1ccc(O)c2[nH]c(=O)ccc12?
IC50 [8]: 0.794 nM; IC50 [9]: 0.1 nM; Ki [10]: 0.01 nM; Ki [11]: 0.251 nM; half-life at 1 h, 1 µM (in vitro [21]): 26 min; hepatocyte CLint at 1.5 h, 1 µM (in vitro [12]): 20 µL/min/1e6 cells; hepatocyte CLint at 1.5 h, 1 µM (in vitro [13]): 33 µL/min/1e6 cells; half-life at 1 h, 1 µM (in vitro [23]): 115 min; half-life at 1 h, 1 µM (in vitro [24]): 111 min; half-life at 2 h, 5 µM (in vitro [14]): > 150 min; half-life at 2 h, 5 µM (in vitro [15]): 55 min; half-life at 2 h, 5 µM (in vitro [16]): 8 min
